According to patent publication USRE47689E1, “Compounds for treating spinal muscular atrophy” (PTC Therapeutics, Inc., priority 2011, dated 2019):
Like-named read-outs stand apart in the source and are kept apart here.

Assays:
[1] = test system: SMN2 minigene (full length SMN2 minigene mRNA containing SMN2 exon 7); assay: SMN2 minigene mRNA splicing RT-qPCR assay in cultured cells; assay type: cell-based, human; conditions: Homo sapiens, HEK293-H, read-out: EC1.5x for production of full length SMN2 mRNA
Procedure, shortened: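 Full-length SMN2 minigene mRNA (exon 7 included), minigene-specific and not endogenous SMN, quantified by RT-qPCR multiplexed with GAPDH in stably transfected HEK293H cells after 24 h compound exposure at 37° C. Abundance from efficiency-corrected Ct, normalized to GAPDH and vehicle; EC1.5x reported as star bins.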

Smn protein = Smn protein assay in cultured cells (SMN HTRF); assay type: cell-based, human; conditions: 48 hours; for EC1.5x (concentration giving 1.5-fold Smn protein increase): SMA Type 1 patient fibroblast cells (GM03813), 7-point concentration curve, SMN HTRF, concentration producing 1.5 times Smn protein vs DMSO vehicle control, read-out: EC1.5x for Smn protein expression; for maximum fold (Fold) increase of Smn protein: SMA patient fibroblast cells, 7-point concentration data, fold increase relative to vehicle control (SMN HTRF)
Procedure, shortened: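 Smn in SMA fibroblast lysates, measured by anti-SMN HTRF after 48 h compound exposure; EC1.5x from fold change over vehicle.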

[2] = HEK293H cells stably transfected with SMN2-A minigene, 24 hours, 7-point concentration curve, 1.5-fold relative to vehicle-treated cells

melting point	Compound	EC (1.5-fold) [1, 2]	EC1.5x (concentration giving 1.5-fold Smn protein increase) (Smn protein)	maximum fold (Fold) increase of Smn protein (Smn protein)	EC (1.5-fold) ([1]; 24 h)
176 to 179 °C	Cc1cn2cc(-c3cc4ccc(O[C@@H]5CCN(C(C)C)C5)cc4oc3=O)nc2c(C)n1 [Compound 891, 3-(6,8-dimethylimidazo[1,2-a]pyrazin-2-yl)-7-{[(3R)-1-(propan-2-yl)pyrrolidin-3-yl]oxy}-2H-chromen-2-one]	0.1 to 0.3 µM	300 to 1000 nM	***** (fold increase >1.65)	
271 to 273 °C	C[C@@H]1CN(c2ccc3cc(-c4cc5ccccc5s4)c(=O)oc3c2)C[C@H](C)N1 [Compound 408, 3-(1-benzothiophen-2-yl)-7-[(3R,5S)-3,5-dimethylpiperazin-1-yl]-2H-chromen-2-one]	0.3 to 1 µM		* (maximum fold increase of ≤1.2)	
304 to 306 °C	CC(=O)O.Cc1cn2cc(-c3cc4ccc(N5CCN(C)[C@H](C)C5)cc4oc3=O)nc2c(O)n1 [Compound 760, 7-[(3R)-3,4-dimethylpiperazin-1-yl]-3-(8-hydroxy-6-methylimidazo[1,2-a]pyrazin-2-yl)-2H-chromen-2-one acetate]	0.1 to 0.3 µM		*** (fold increase between >1.35 and ≤1.5)	
176 to 178 °C	Cc1cn2cc(-c3cc4ccc(CCCN(C)C)cc4oc3=O)ccc2n1 [Cpd 908, 7-[3-(dimethylamino)propyl]-3-(2-methylimidazo[1,2-a]pyridin-6-yl)-2H-chromen-2-one]	0.1 to 0.3 µM	300 to 1000 nM	***** (fold increase >1.65)	
166 to 170 °C	COc1cc(-c2cc3ccc(N4CCN[C@@H](C)C4)cc3oc2=O)ccc1C [Compound 575, 3-(3-methoxy-4-methylphenyl)-7-[(3S)-3-methylpiperazin-1-yl]-2H-chromen-2-one]	0.3 to 1 µM		* (maximum fold increase of ≤1.2)	
210 to 217 °C	Cc1ccn2cc(-c3cc4ccc(N5C[C@@H](C)N[C@@H](C)C5)cc4oc3=O)nc2c1 [Compound 133, 7-[(3R,5S)-3,5-dimethylpiperazin-1-yl]-3-(7-methylimidazo[1,2-a]pyridin-2-yl)-2H-chromen-2-one]	0.1 to 0.3 µM	3000 to 10000 nM	*** (fold increase between >1.35 and ≤1.5)	
204 to 209 °C	Cc1csc(-c2cc3ccc(N4CCNC(C)(C)C4)cc3oc2=O)n1 [Compound 301, 7-(3,3-dimethylpiperazin-1-yl)-3-(4-methyl-1,3-thiazol-2-yl)-2H-chromen-2-one]	1 to 3 µM		* (maximum fold increase of ≤1.2)	
186 to 188 °C	Cc1cn2cc(-c3cc4ccc(OCCN[C@@H](C)CO)cc4oc3=O)nc2c(C)n1 [Compound 947, 3-(6,8-dimethylimidazo[1,2-a]pyrazin-2-yl)-7-(2-{[(2S)-1-hydroxypropan-2-yl]amino}ethoxy)-2H-chromen-2-one]	< 0.1 µM	< 300 nM	**** (fold increase between >1.5 and ≤1.65)	
155 to 158 °C	Cc1cn2cc(-c3cc4ccc(N5CC[C@@H](N(C)C)C5)cc4oc3=O)cc2c(C)n1 [Compound 708, 7-[(3R)-3-(dimethylamino)pyrrolidin-1-yl]-3-(1,3-dimethylpyrrolo[1,2-a]pyrazin-7-yl)-2H-chromen-2-one]	< 0.1 µM		** (fold increase between >1.2 and ≤1.35)	
215 to 218 °C	Cc1nn2cc(-c3cc4ccc(N5CCCNCC5)cc4oc3=O)nc2s1 [Compound 450, 7-(1,4-diazepan-1-yl)-3-(2-methylimidazo[2,1-b][1,3,4]thiadiazol-6-yl)-2H-chromen-2-one]	1 to 3 µM	1000 to 3000 nM	*** (fold increase between >1.35 and ≤1.5)	
262 to 265 °C	CC(C)NCCCc1ccc2cc(-c3nc4c(Cl)cccc4s3)c(=O)oc2c1 [Compound 36, 3-(4-chloro-1,3-benzothiazol-2-yl)-7-[3-(propan-2-ylamino)propyl]-2H-chromen-2-one]	1 to 3 µM		* (maximum fold increase of ≤1.2)	
197 to 200 °C	O=c1oc2cc(N3CCNCC3)ccc2cc1-c1cccnc1C(F)(F)F [Cpd 124, 7-(piperazin-1-yl)-3-[2-(trifluoromethyl)pyridin-3-yl]-2H-chromen-2-one]	0.3 to 1 µM		** (fold increase between >1.2 and ≤1.35)	
276 to 286 °C	Cc1cc(F)c2nc(-c3cc4ccc(N5CCNCC5)cc4oc3=O)cn2c1 [Compound 356, 3-(8-fluoro-6-methylimidazo[1,2-a]pyridin-2-yl)-7-(piperazin-1-yl)-2H-chromen-2-one]	< 0.1 µM		** (fold increase between >1.2 and ≤1.35)	
223 to 233 °C	Cc1cc(F)cn2cc(-c3cc4ccc(N5CCN(C)CC5)cc4oc3=O)nc12 [Compound 329, 3-(6-fluoro-8-methylimidazo[1,2-a]pyridin-2-yl)-7-(4-methylpiperazin-1-yl)-2H-chromen-2-one]	0.3 to 1 µM		* (maximum fold increase of ≤1.2)	
175 to 177 °C	COc1cccc(-c2cc3ccc(N4C[C@@H](C)N[C@@H](C)C4)cc3oc2=O)n1 [Compound 315, 7-[(3R,5S)-3,5-dimethylpiperazin-1-yl]-3-(6-methoxypyridin-2-yl)-2H-chromen-2-one]	0.3 to 1 µM		* (maximum fold increase of ≤1.2)	
162 to 165 °C	COc1cccc(-c2cc3ccc(N4CCNCC4)cc3oc2=O)n1 [Cpd 218, 3-(6-methoxypyridin-2-yl)-7-(piperazin-1-yl)-2H-chromen-2-one]	0.3 to 1 µM		** (fold increase between >1.2 and ≤1.35)	
164 to 167 °C	Cc1cccnc1Nc1cc2ccc(N3CCNCC3)cc2oc1=O [Compound 61, 3-[(3-methylpyridin-2-yl)amino]-7-(piperazin-1-yl)-2H-chromen-2-one]	3 to 30 µM		** (fold increase between >1.2 and ≤1.35)	
> 310 °C	CN1CCN(c2ccc3cc(-c4cn5cccnc5n4)c(=O)oc3c2)CC1 [Compound 87, 3-(imidazo[1,2-a]pyrimidin-2-yl)-7-(4-methylpiperazin-1-yl)-2H-chromen-2-one]	0.3 to 1 µM	1000 to 3000 nM	**** (fold increase between >1.5 and ≤1.65)	
243 to 246 °C	Cc1cccn2cc(-c3cc4ccc(N5C[C@@H](C)N[C@@H](C)C5)cc4oc3=O)nc12 [Compound 136, 7-[(3R,5S)-3,5-dimethylpiperazin-1-yl]-3-(8-methylimidazo[1,2-a]pyridin-2-yl)-2H-chromen-2-one]	1 to 3 µM		** (fold increase between >1.2 and ≤1.35)	
189 to 193 °C	CCNCCOc1ccc2cc(-c3cn4cc(C)nc(C)c4n3)c(=O)oc2c1 [Compound 930, 3-(6,8-dimethylimidazo[1,2-a]pyrazin-2-yl)-7-[2-(ethylamino)ethoxy]-2H-chromen-2-one]	< 0.1 µM	< 300 nM	***** (fold increase >1.65)	
267 to 275 °C	C[C@@H]1CN(c2ccc3cc(-c4cn5ccc(C(F)(F)F)cc5n4)c(=O)oc3c2)C[C@H](C)N1C [Compound 168, 3-[7-(trifluoromethyl)imidazo[1,2-a]pyridin-2-yl]-7-[(3R,5S)-3,4,5-trimethylpiperazin-1-yl]-2H-chromen-2-one]	1 to 3 µM		* (maximum fold increase of ≤1.2)	

Compound	melting point	EC (1.5-fold) [1, 2]	EC1.5x (concentration giving 1.5-fold Smn protein increase) (Smn protein)	maximum fold (Fold) increase of Smn protein (Smn protein)	EC (1.5-fold) ([1]; 24 h)
O=c1oc2cc(N3CCNCC3)ccc2cc1-c1ccncc1 [Compound 27, 7-(piperazin-1-yl)-3-(pyridin-4-yl)-2H-chromen-2-one]	212 to 214 °C			* (maximum fold increase of ≤1.2)	1 to 3 µM
O=c1oc2cc(N3CC4CCC(C3)N4)ccc2cc1-c1cn2cccc(Cl)c2n1 [Compound 526, 3-(8-chloroimidazo[1,2-a]pyridin-2-yl)-7-(3,8-diazabicyclo[3.2.1]oct-3-yl)-2H-chromen-2-one]	213 to 216 °C			*** (fold increase between >1.35 and ≤1.5)	0.1 to 0.3 µM
CN1CCN(c2ccc3cc(-c4ccn(C)n4)c(=O)oc3c2)CC1 [Compound 73, 7-(4-methylpiperazin-1-yl)-3-(1-methyl-1H-pyrazol-3-yl)-2H-chromen-2-one]	183 to 186 °C			** (fold increase between >1.2 and ≤1.35)	3 to 30 µM
